Earlier results on one substance are cited in patent US7947313B2, “Compositions for diabetes treatment and prophylaxis” (Ayurvedic-Life International, LLC, priority 2003, dated 2011).

The conditions of data set [1]: Fletcher et al. 1999.
In another data set the test system is rat chorda tympani nerve. Particulars: stimuli such as glucose, sucrose, glycine and saccharine; Fletcher et al. 1999.

On to gurmarin, for which the effect in humans result in data set [1] was “no apparent effect”. Moreover, the “response of the rat chorda tympani nerve to sweet taste stimuli” value in the data set with rat chorda tympani nerve is on record as “suppressing the response”.
